Reference: the METLIN SMRT retention time set (Domingo-Almenara et al. 2019)

Experiment: gradient 5% acetonitrile 3 min, to 50% in 2 min, to 85% in 15 min, held 3 min, 100 µL/min
Conditions: column: Zorbax Extend-C18 2.1 x 50 mm; eluents: water / acetonitrile, 0.1% formic acid
Summary of the method: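 The system's dead and dwell volumes were 40 μL and 900 μL, with a Zorbax Extend-C18 column (2.1 × 50 mm, 1.8 μm) run at 100 μL/min in water and acetonitrile containing 0.1% formic acid each. Pure standards were analyzed in mixtures of ~100 molecules by HPLC–quadrupole time-of-flight mass spectrometry in positive and negative ionization mode. Retention time was assigned from computationally picked, manually inspected adduct peaks.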

SMILES	RP-LC retention time
CC(C)NC(=O)CCCN1C(=O)c2ccccc2Sc2ncccc21	674 s
O=C([C@@H]1C[C@H](F)CN1C(=O)NCc1ccco1)N1CCCCC1	631 s
CCn1cc(C(=O)Nc2ccc(C)c(F)c2)c2cccnc21	920 s
COCCCNC(=O)Cn1c(=O)n(-c2ccc(F)cc2)c2ncccc21	1390 s
COc1ccc(NC(=O)CSc2nnc3c4sc(N5CCCC5)nc4ncn23)cc1Cl	798 s
CC(C)(C)n1cc(C(=O)c2ccccc2)cc1-c1ccccc1	1350 s
Cc1cc(N2CCCC2)n2nc(CN3CCN(c4ccc(F)cc4)CC3)nc2n1	634 s
Cn1cnc2c(C(=O)Nc3cccc(C(F)(F)F)c3)nn(-c3ccccc3)c2c1=O	970 s
O=C(Cn1nc(C(=O)N2CCCC2)c2ccccc21)NCc1ccccc1Cl	824 s
O=c1c2nc(-c3ccc(F)cc3F)cn2ccn1-c1ccc(Cl)cc1	921 s
NC(=O)CSc1nnc(CCc2nc3ccccc3s2)o1	633 s
COc1cc(OC)c(NC(=O)Cn2nc3n(c2=O)CCCC3)cc1Cl	673 s
CCN(CC)CCNC(=O)C1CCN(c2nnc3ccc(Cl)cn23)CC1	565 s
COc1cc(OC)c(NC(=O)C2CCN(C(=O)C3Sc4ccccc4NC3=O)CC2)cc1Cl (stereo unspecified)	810 s
CN1C2CCC1CC(OC(c1ccccc1)c1ccccc1N)C2 (stereo unspecified)	752 s
CCOC(=O)C1CCC(CNC(=O)N2CCN(Cc3nc4cc(C)ccc4o3)CC2)CC1 (stereo unspecified)	735 s
CCCNS(=O)(=O)c1cc(-c2nc(C)cs2)n(CC(=O)N2CCCCC2)c1	869 s
COC(=O)c1cccc(COC(=O)C2=CN(Cc3ccccc3)S(=O)(=O)N=C2C)c1	1060 s
CCOC(=O)C1CCC(CNC(=O)N2CCC(N3CCN(Cc4ccccc4)C(=O)C3=O)CC2)CC1 (stereo unspecified)	734 s
Nc1nc(N2CCCC2)ncc1C(=O)NCc1ccccc1	615 s
O=C(COc1ccccc1)Nc1nonc1NC(=O)COc1ccccc1	854 s
Cc1ccsc1C(=O)N1CCc2[nH]cnc2C12CCCCC2	606 s
COc1ccc(NC(=O)N2CCN(c3nc4cccnc4s3)CC2)cc1	690 s
Cc1ccccc1-c1nnc(CSc2nnc(NC(=O)c3c(F)cccc3F)s2)o1	905 s
O=C(NCc1ccccn1)c1cccc2c1CCN2C(=O)c1ccc(F)cc1	644 s
O=C(NCc1cc(F)ccc1F)C1CCc2nc(N3CCCC3)ncc2C1 (stereo unspecified)	646 s
CC(CCNC(=O)c1ccc2ccnc(N3CCN(c4ccc(F)cc4)CC3)c2c1)N1CCCC1 (stereo unspecified)	597 s

Results, then the compound that gave them:

RP-LC retention time	SMILES
575 s	CCc1cc(N2CCN(C(=O)c3ccc4c(c3)OCO4)CC2)nc2nncn12
723 s	Cc1nc(-c2ccncc2)nc2c1CCC(=O)N2Cc1cccs1
1030 s	O=C(Nc1cc(-c2ccsc2)no1)C1(c2ccccc2)CC1
904 s	Cn1cc(C2=CCN(S(=O)(=O)c3cccc(C#N)c3)CC2)c2cccnc21
836 s	Cc1cccc(N2C(=O)CN(CC(C)C)[C@H]3CS(=O)(=O)C[C@H]32)c1
977 s	Cc1nc2cc(-c3noc(-c4cccc(C#N)c4)n3)ccc2o1
770 s	O=C(OCc1ccncc1)c1cn(-c2cccc(Cl)c2)c(=O)c2ccccc12
1210 s	CSc1ccc(CNC(=O)C2CCCN(c3nc4c(s3)c(C)nn4-c3ccc(C)cc3)C2)cc1 (stereo unspecified)
730 s	O=C(NC1CC1)c1nnc(-c2ccc(S(=O)(=O)N3CCCC3)cc2)o1
1090 s	Cc1cc(C(=O)NCc2ccc(F)cc2)nc2cc(-c3cccs3)nn12
1420 s	COC(=O)c1cc2c(=O)n(-c3nc(-c4ccc(Cl)cc4)cs3)ccc2nc1C
665 s	Cc1c(CNCCCN2CCCC2=O)c(C(=O)O)c(C)n1Cc1cccc(Cl)c1
1020 s	CC(C)c1noc(-c2ccc(-n3cnc(C(=O)Nc4ccc(F)cc4)c3)nc2)n1
808 s	COc1cccc(NC(=O)C2(C)Oc3cccnc3N(C)C2=O)c1 (stereo unspecified)
835 s	CCn1cc(-c2nc(CC(=O)NCc3ccc4c(c3)OCO4)cs2)c2cccnc21
880 s	COC(=O)c1ccc2c(c1)nnn2Cc1cccc(OC)c1
1060 s	Cc1cc(C)cc(-c2nc(-c3ccc4c(c3)oc(=O)n4C)no2)c1
575 s	COc1ccc(CNC(=O)c2cc(NC(C)=O)cc3nc(C)ccc23)cc1OC
930 s	Cc1ccc2c(c1)N(C(=O)Cn1ccn3nc(-c4ccc(F)cc4)c(CO)c3c1=O)CCO2
1150 s	Cn1nccc1-c1cccc(-c2noc(Cc3ccc(Br)cc3)n2)c1

RP-LC retention time	SMILES
808 s	COC(=O)c1ccc(NC(=O)C2CCCN(c3ncnc4c3nc3n4CCCCC3)C2)cc1 (stereo unspecified)
970 s	Cc1ccc(NS(=O)(=O)c2ccc3c(c2)C(=O)N(C)c2ncccc2O3)cc1C
1040 s	Cc1cc(S(=O)(=O)[C@H]2CS(=O)(=O)C[C@@H]2N2CCN(c3ccccc3F)CC2)ccc1F
978 s	Cc1cc(C)c(S(=O)(=O)N2CC(c3nc(-c4ccncc4)no3)C2)c(C)c1
667 s	Nc1nc(SCC(=O)Nc2cccc(-c3nc4ccccc4s3)c2)n[nH]1
667 s	O=C(NCc1ccc(F)cc1)c1cn2ccncc2n1
881 s	COc1ccc(C(=O)N2CCCn3nc(-c4ccc(Cl)cc4)cc3C2)cn1
676 s	O=C([C@@H]1C[C@H](F)CN1S(=O)(=O)c1cccc(F)c1)N1CCOCC1
995 s	CCc1cc(C(=O)Nc2cccc(C)c2)nc2ccnn12
1310 s	CN(C)c1nc(Nc2ccc(F)cc2)c2cnn(-c3ccccc3)c2n1
555 s	O=C(c1ccn2c(-c3ccccc3Br)nnc2c1)N1CCN(c2ccccn2)CC1
738 s	CN(C)c1ccc(C(=O)Nc2cc(-c3cccnc3)no2)cc1
744 s	CCN1C(=O)C(C)(C(=O)NCc2cccc(C)c2)Oc2cccnc21 (stereo unspecified)
733 s	Cc1nn(CC(=O)N2CCOCC2)c(=O)c2c(-n3cccc3)n(-c3cccc(F)c3)nc12
601 s	COc1cccc(S(=O)(=O)N2CC(n3ccnc3)C2)c1
748 s	CC(=O)c1ccc(NC(=O)NC2CCN(c3nc4ccccc4n(C)c3=O)CC2)cc1
925 s	Cc1[nH]c(C(=O)Nc2ccccc2)c(C)c1S(=O)(=O)N1CCCCC1
795 s	COc1ncc(C(=O)Nc2ccc(F)c(F)c2)c(C)n1
651 s	CCCN1CCN(c2cc(C(=O)O)c3cc(NS(=O)(=O)c4ccc(F)c(F)c4)ccc3n2)CC1
